# Measurements reported in ChEMBL document CHEMBL3885881, “DrugMatrix”.
# Organism: Rattus norvegicus
# Test: DrugMatrix - Regimen: Daily Repeat
# Format: toxicity, organism-based, Sprague-Dawley
# Parameters: regimen Daily Repeat, gender Male, age 6-8 weeks
# Conditions: in vivo, po, route oral GAVAGE, […]; for ABSOLUTE BASOPHIL / ABSOLUTE EOSINOPHIL / ABSOLUTE LYMPHOCYTE / ABSOLUTE MONOCYTE / ABSOLUTE SEGMENTED NEUTROPHIL / BASOPHIL / EOSINOPHIL / ERYTHROCYTE COUNT / HEMATOCRIT / HEMOGLOBIN / LEUKOCYTE COUNT / LYMPHOCYTE / MEAN CORPUSCULAR HEMOGLOBIN / MEAN CORPUSCULAR HEMOGLOBIN CONCENTRATION / MEAN CORPUSCULAR VOLUME / MONOCYTE / NEUTROPHIL / NUCLEATED RED BLOOD CELLS / PLATELET COUNT: tissue Blood; for ALANINE AMINOTRANSFERASE / ALBUMIN / ALKALINE PHOSPHATASE / ASPARTATE AMINOTRANSFERASE / BLOOD UREA NITROGEN / CARBON DIOXIDE / CHLORIDE / CHOLESTEROL / CREATINE PHOSPHOKINASE / CREATININE / GLUCOSE / LACTATE DEHYDROGENASE / LIPASE / PHOSPHORUS / POTASSIUM / SODIUM / TOTAL BILIRUBIN / TOTAL PROTEIN / URIC ACID: tissue Plasma
# [1] = 0 mg/kg, 72 h, dose level Control, time 3 day
# [2] = 0 mg/kg, 120 h, dose level Control, time 5 day
# [3] = 35 mg/kg, 72 h, dose level Low, time 3 day
# [4] = 35 mg/kg, 120 h, dose level Low, time 5 day
smiles,measurement,setting,value
CC(=O)Oc1ccccc1C(=O)O [ASPIRIN],ABSOLUTE BASOPHIL,[1],0 CELLS/uL
same,ABSOLUTE EOSINOPHIL,[1],0 CELLS/uL
same,ABSOLUTE LYMPHOCYTE,[1],6275.67 CELLS/uL
same,ABSOLUTE MONOCYTE,[1],40.67 CELLS/uL
same,ABSOLUTE SEGMENTED NEUTROPHIL,[1],633.67 CELLS/uL
same,BASOPHIL,[1],0%
same,EOSINOPHIL,[1],0%
same,ERYTHROCYTE COUNT,[1],5.2 x10E6/uL
same,HEMATOCRIT,[1],32.78%
same,HEMOGLOBIN,[1],12.98 G/DL
same,LEUKOCYTE COUNT,[1],6.95 x10E3/uL
same,LYMPHOCYTE,[1],90.17%
same,MEAN CORPUSCULAR HEMOGLOBIN,[1],24.97 pg
same,MEAN CORPUSCULAR HEMOGLOBIN CONCENTRATION,[1],39.62 G/DL
same,MEAN CORPUSCULAR VOLUME,[1],63.03 fL
same,MONOCYTE,[1],0.67%
same,NEUTROPHIL,[1],9.17%
same,NUCLEATED RED BLOOD CELLS,[1],0 /100WBC
same,PLATELET COUNT,[1],1082.83 x10E3/uL
same,ALANINE AMINOTRANSFERASE,[1],69.67 u/L
same,ALBUMIN,[1],4.15 G/DL
same,ALKALINE PHOSPHATASE,[1],430.5 u/L
same,ASPARTATE AMINOTRANSFERASE,[1],90.83 u/L
same,BLOOD UREA NITROGEN,[1],13 mg/dL
same,CARBON DIOXIDE,[1],33 mmol/L
same,CHLORIDE,[1],99.17 MEQ/L
same,CHOLESTEROL,[1],70.5 mg/dL
same,CREATINE PHOSPHOKINASE,[1],253.33 u/L
same,CREATININE,[1],0.13 mg/dL
same,GLUCOSE,[1],157.17 mg/dL
same,LACTATE DEHYDROGENASE,[1],85 u/L
same,LIPASE,[1],10 u/L
same,PHOSPHORUS,[1],10.2 mg/dL
same,POTASSIUM,[1],5.78 MEQ/L
same,SODIUM,[1],144.12 MEQ/L
same,TOTAL BILIRUBIN,[1],0.2 mg/dL
same,TOTAL PROTEIN,[1],5.8 G/DL
same,URIC ACID,[1],0.8 mg/dL
same,ABSOLUTE BASOPHIL,[2],0 CELLS/uL
same,ABSOLUTE EOSINOPHIL,[2],0 CELLS/uL
same,ABSOLUTE LYMPHOCYTE,[2],10431 CELLS/uL
same,ABSOLUTE MONOCYTE,[2],90.5 CELLS/uL
same,ABSOLUTE SEGMENTED NEUTROPHIL,[2],1111.83 CELLS/uL
same,BASOPHIL,[2],0%
same,EOSINOPHIL,[2],0%
same,ERYTHROCYTE COUNT,[2],5.51 x10E6/uL
same,HEMATOCRIT,[2],34.67%
same,HEMOGLOBIN,[2],13.5 G/DL
same,LEUKOCYTE COUNT,[2],11.63 x10E3/uL
same,LYMPHOCYTE,[2],89.67%
same,MEAN CORPUSCULAR HEMOGLOBIN,[2],24.5 pg
same,MEAN CORPUSCULAR HEMOGLOBIN CONCENTRATION,[2],38.95 G/DL
same,MEAN CORPUSCULAR VOLUME,[2],62.87 fL
same,MONOCYTE,[2],0.67%
same,NEUTROPHIL,[2],9.67%
same,NUCLEATED RED BLOOD CELLS,[2],0 /100WBC
same,PLATELET COUNT,[2],1052.67 x10E3/uL
same,ALANINE AMINOTRANSFERASE,[2],54.67 u/L
same,ALBUMIN,[2],4.15 G/DL
same,ALKALINE PHOSPHATASE,[2],359.83 u/L
same,ASPARTATE AMINOTRANSFERASE,[2],83 u/L
same,BLOOD UREA NITROGEN,[2],13.5 mg/dL
same,CARBON DIOXIDE,[2],27.17 mmol/L
same,CHLORIDE,[2],98.5 MEQ/L
same,CHOLESTEROL,[2],66.83 mg/dL
same,CREATINE PHOSPHOKINASE,[2],256.17 u/L
same,CREATININE,[2],0.19 mg/dL
same,GLUCOSE,[2],171.33 mg/dL
same,LACTATE DEHYDROGENASE,[2],91.5 u/L
same,LIPASE,[2],10.5 u/L
same,PHOSPHORUS,[2],8.72 mg/dL
same,POTASSIUM,[2],5.34 MEQ/L
same,SODIUM,[2],142.53 MEQ/L
same,TOTAL BILIRUBIN,[2],0.2 mg/dL
same,TOTAL PROTEIN,[2],6.05 G/DL
same,URIC ACID,[2],0.6 mg/dL
same,ABSOLUTE BASOPHIL,[3],0 CELLS/uL
same,ABSOLUTE EOSINOPHIL,[3],58.67 CELLS/uL
same,ABSOLUTE LYMPHOCYTE,[3],9448 CELLS/uL
same,ABSOLUTE MONOCYTE,[3],29.33 CELLS/uL
same,ABSOLUTE SEGMENTED NEUTROPHIL,[3],530.67 CELLS/uL
same,BASOPHIL,[3],0%
same,EOSINOPHIL,[3],0.67%
same,ERYTHROCYTE COUNT,[3],4.69 x10E6/uL
same,HEMATOCRIT,[3],30.17%
same,HEMOGLOBIN,[3],12.1 G/DL
same,LEUKOCYTE COUNT,[3],10.07 x10E3/uL
same,LYMPHOCYTE,[3],93.33%
same,MEAN CORPUSCULAR HEMOGLOBIN,[3],25.83 pg
same,MEAN CORPUSCULAR HEMOGLOBIN CONCENTRATION,[3],40.1 G/DL
same,MEAN CORPUSCULAR VOLUME,[3],64.4 fL
same,MONOCYTE,[3],0.33%
same,NEUTROPHIL,[3],5.67%
same,NUCLEATED RED BLOOD CELLS,[3],0 /100WBC
same,PLATELET COUNT,[3],951 x10E3/uL
same,ALANINE AMINOTRANSFERASE,[3],86 u/L
same,ALBUMIN,[3],4.17 G/DL
same,ALKALINE PHOSPHATASE,[3],369 u/L
same,ASPARTATE AMINOTRANSFERASE,[3],104.67 u/L
same,BLOOD UREA NITROGEN,[3],13.5 mg/dL
same,CARBON DIOXIDE,[3],32 mmol/L
same,CHLORIDE,[3],101.33 MEQ/L
same,CHOLESTEROL,[3],79.33 mg/dL
same,CREATINE PHOSPHOKINASE,[3],304 u/L
same,CREATININE,[3],0.15 mg/dL
same,GLUCOSE,[3],156 mg/dL
same,LACTATE DEHYDROGENASE,[3],85.33 u/L
same,LIPASE,[3],23.33 u/L
same,PHOSPHORUS,[3],9.53 mg/dL
same,POTASSIUM,[3],5.79 MEQ/L
same,SODIUM,[3],145.73 MEQ/L
same,TOTAL BILIRUBIN,[3],0.2 mg/dL
same,TOTAL PROTEIN,[3],5.7 G/DL
same,URIC ACID,[3],0.53 mg/dL
same,ABSOLUTE BASOPHIL,[4],0 CELLS/uL
same,ABSOLUTE EOSINOPHIL,[4],0 CELLS/uL
same,ABSOLUTE LYMPHOCYTE,[4],9532 CELLS/uL
same,ABSOLUTE MONOCYTE,[4],142 CELLS/uL
same,ABSOLUTE SEGMENTED NEUTROPHIL,[4],926 CELLS/uL
same,BASOPHIL,[4],0%
same,EOSINOPHIL,[4],0%
same,ERYTHROCYTE COUNT,[4],5.39 x10E6/uL
same,HEMATOCRIT,[4],34.33%
same,HEMOGLOBIN,[4],13.4 G/DL
same,LEUKOCYTE COUNT,[4],10.6 x10E3/uL
same,LYMPHOCYTE,[4],90%
same,MEAN CORPUSCULAR HEMOGLOBIN,[4],24.83 pg
same,MEAN CORPUSCULAR HEMOGLOBIN CONCENTRATION,[4],39.03 G/DL
same,MEAN CORPUSCULAR VOLUME,[4],63.63 fL
same,MONOCYTE,[4],1.33%
same,NEUTROPHIL,[4],8.67%
same,NUCLEATED RED BLOOD CELLS,[4],0 /100WBC
same,PLATELET COUNT,[4],1012.67 x10E3/uL
same,ALANINE AMINOTRANSFERASE,[4],59 u/L
same,ALBUMIN,[4],4.1 G/DL
same,ALKALINE PHOSPHATASE,[4],356.67 u/L
same,ASPARTATE AMINOTRANSFERASE,[4],89.33 u/L
same,BLOOD UREA NITROGEN,[4],11.33 mg/dL
same,CARBON DIOXIDE,[4],27.67 mmol/L
same,CHLORIDE,[4],98.67 MEQ/L
same,CHOLESTEROL,[4],69 mg/dL
same,CREATINE PHOSPHOKINASE,[4],329.67 u/L
same,CREATININE,[4],0.17 mg/dL
same,GLUCOSE,[4],164.33 mg/dL
same,LACTATE DEHYDROGENASE,[4],89 u/L
same,LIPASE,[4],11.67 u/L
same,PHOSPHORUS,[4],9.13 mg/dL
same,POTASSIUM,[4],5.65 MEQ/L
same,SODIUM,[4],145.03 MEQ/L
same,TOTAL BILIRUBIN,[4],0.2 mg/dL
same,TOTAL PROTEIN,[4],6.13 G/DL
same,URIC ACID,[4],0.57 mg/dL
